# According to publication PMC6611044, “Pharmacokinetic analysis of new synthetic antimalarial N-251” (Tropical Medicine and Health, 2019):
# Where “and” joins values, the source holds several entries; their conditions need not be identical. Identical values can stand only once. Entries after “also recorded” stand apart in the source; their conditions may differ. Like-named read-outs stand apart in the source and are kept apart here.
# Assays:
# [1] = PK analysis after i.v. administration of N-251 in fasted mice; assay type: in vivo; conditions: for MRTiv / Vd1 / Vd2 / AUC / k el / clearance / Vd: fasted mice; for A (hybrid parameter) / B (hybrid parameter) / a (hybrid parameter) / b (hybrid parameter): two-compartment fit; for half-life / AUC / k el / clearance / Vd: male, ICR, mouse, plasma; for clearance: read-out: CLtotal (converted); for Vd: read-out: Vdss
# Description: We used healthy 5-week-old ICR male mice that were subjected to overnight fasting since the night a day before the test. To analyze N-251 after i.v. administration, doses of 25, 10, and 5 mg/kg were used for each group. The blood sample was collected at 2, 5, 15, and 30 min as well as 1, 2, 4, and 6 h post-dose, and a single blood sample was collected from a single mouse. Preparation of plasma samples of N-251 was described in the “Methods” section. Data were expressed as mean (n = 6) ± standard deviation (SD). Plasma concentration-time profiles after i.v. administration were fitted to a two-compartment model using the non-linear least-squares regression program MULTI [17]. Plasma concentration (Cp) was expressed using the following equation: Cp=A⋅EXP−α⋅t+B⋅EXP−β⋅t.
# where A and B are D ⋅ (α − k21)/Vd1/(α − β) and D ⋅ (k21 − β)/Vd1/(α − β), respectively. D, Vd1, and k21 are the dose, apparent distribution volume of central compartment, and distribution rate constant from the peripheral to central compartment, respectively, and α and β represent the slopes of α and β phases of log Cp, respectively. PK parameters were calculated as follows: AUC = A/α +B/β; total body clearance, CLtotal =D/AUC; elimination rate constant, kel = (Aβ + Bα)/(A + B); apparent distribution volume of peripheral compartment, Vd2 =k12/k21·Vd1; distribution volume at steady state, Vdss = Vd1 + Vd2; and mean residence time (MRT) = (k12+ k21)/(kel·k21).
# [2] = PK analysis after p.o. administration of N-251 in fasted mice; assay type: in vivo; conditions: for AUC: 0 to infinity
# Description: To analyze the absorption kinetics of N-251, it was orally administered to fasted mice with dose of 210, 100, 68, 50, and 30 mg/kg. Blood sample was collected at 15 and 30 min as well as 1, 1.5, 2, 3, 4, and 6 h post-dose. Data were expressed as the mean (n = 6) ± SD. AUC and MRT after p.o. administration in fasting mice were calculated based on the trapezoidal rule. F was calculated with an AUC of 10 mg/kg of i.v. dose. The highest observed concentration was used as Cmax, and the time for Cmax was defined as Tmax.
# [3] = Effects of food and parasite infection on absorption of N-251 after p.o. administration; assay type: in vivo, mice; conditions: p.o. 68 mg/kg; for F: vs AUC of 10 mg/kg i.v.
# Description: Normal-fasted and normal-fed mice were used for the analysis. Parasite-infected mice were prepared before the analysis, and a 0.61% infection rate in P. berghei-infected mice under fasting condition was used. The single p.o. dose of N-251 was 68 mg/kg. Blood sample was collected 15, 30, and 45 min as well as 1, 1.5, 2, 3, 4, and 6 h post-dose. Data were expressed as mean with the bar indicating the SD value.
# [4] = Multiple p.o. dosing plasma concentration-time profile and simulation; assay type: in vivo, mice
# Description: N-251 was administered p.o. at a dose of 68 mg/kg every 8 h for 2 days in normal-fed mice. Blood sample was collected at 15, 30, and 45 min as well as 1, 1.5, 2, 3, 4, 6, 8, 10, 16, 18, 24, 26, 32, 34, 40, 42, 44, 46, and 48 h after administration. Data were expressed as mean (n = 6) with the bar indicating the SD value. Simulation of plasma concentration-time profile after multiple dosing was performed by utilizing the parameters obtained via fitting analysis for the plasma concentration-time curve after a single p.o. dose of N-251 based on the two-compartment model with the first-order absorption process. The equation and parameters used for the simulation were as follows: Cp=X⋅EXP−ka⋅t−tlag+Y⋅EXP−α⋅t−tlag+Z⋅EXP−β⋅t−tlag,
# where ka and tlag are absorption rate constant and lag time, respectively, and X, Y, Z, α, and β are the hybrid parameters. Their values used for simulation were as follows: X = 8422 ng/mL/kg, ka = 0.845 h^−1, Y = − 8419 ng/mL/kg, α = 1.09 h^−[…], Z = 5.29 ng/mL/kg, β = 1.06 h^−1, and lag time = 0.330.
# Solubility = assay type: physicochemical; conditions: water
# [5] = Multiple p.o. dosing plasma concentration-time profile and simulation; assay type: in vivo, mice; conditions: 68 mg/kg three times a day for 3 days
# [6] = system: P. falciparum (FCR-3 strain); set-up: method as in PMID 21501696; conditions: P. falciparum FCR-3 strain in vitro, cited from earlier work
# P. berghei = system: P. berghei; set-up: method as in PMID 11428929; conditions: 4-day suppressive test, cited from earlier work
# rodent malaria parasites = system: rodent malaria parasites; set-up: method as in PMID 21501696; conditions: 68 mg/kg three times a day for 3 days, cited from earlier work
# [7] = cited from earlier work
# [8] = i.v. 5, 10 and 25 mg/kg, range over doses
# [9] = male, ICR, mouse, plasma, po, p.o. 30 mg/kg
# [10] = male, ICR, mouse, plasma, po, p.o. 50 mg/kg
# [11] = male, ICR, mouse, plasma, po, p.o. 68 mg/kg
# [12] = male, ICR, mouse, plasma, po, p.o. 100 mg/kg
# [13] = male, ICR, mouse, plasma, po, p.o. 210 mg/kg
# [14] = ICR, mouse, plasma, po, 68 mg/kg, normal-fed mice
# [15] = fit of single p.o. dose, two-compartment model with first-order absorption
smiles,measurement,setting,value
"OCCCCCCC1COOC2(CCCCCCCCCCC2)OOC1 [N-251, 6-(1,2,6,7-tetraoxaspiro [7.11]nonadec-4-yl)hexan-1-ol]",MRTiv,[1]; i.v. 5 mg/kg,1.12 h
same,Vd1,[1]; i.v. 5 mg/kg,3.23 L/kg
same,Vd2,[1]; i.v. 5 mg/kg,1.62 L/kg
same,A (hybrid parameter),[1]; i.v. 5 mg/kg,1453.6 ± 465.9 ng/mL
same,B (hybrid parameter),[1]; i.v. 5 mg/kg,92.5 ± 182.0 ng/mL
same,a (hybrid parameter),[1]; i.v. 5 mg/kg,1.62 ± 0.70 h⁻¹
same,b (hybrid parameter),[1]; i.v. 5 mg/kg,0.35 ± 0.37 h⁻¹
same,MRTiv,[1]; i.v. 10 mg/kg,0.96 h
same,Vd1,[1]; i.v. 10 mg/kg,1.58 L/kg
same,Vd2,[1]; i.v. 10 mg/kg,2.35 L/kg
same,A (hybrid parameter),[1]; i.v. 10 mg/kg,5922.7 ± 1731.5 ng/mL
same,B (hybrid parameter),[1]; i.v. 10 mg/kg,410.0 ± 253.8 ng/mL
same,a (hybrid parameter),[1]; i.v. 10 mg/kg,3.84 ± 1.23 h⁻¹
same,b (hybrid parameter),[1]; i.v. 10 mg/kg,0.46 ± 0.15 h⁻¹
same,MRTiv,[1]; i.v. 25 mg/kg,0.86 h
same,Vd1,[1]; i.v. 25 mg/kg,1.36 L/kg
same,Vd2,[1]; i.v. 25 mg/kg,1.52 L/kg
same,A (hybrid parameter),[1]; i.v. 25 mg/kg,"17,738.1 ± 1700.0 ng/mL"
same,B (hybrid parameter),[1]; i.v. 25 mg/kg,690.4 ± 341.6 ng/mL
same,a (hybrid parameter),[1]; i.v. 25 mg/kg,3.12 ± 0.55 h⁻¹
same,b (hybrid parameter),[1]; i.v. 25 mg/kg,0.39 ± 0.10 h⁻¹
same,T1/2α,[1]; [8],0.18 to 0.429 h
same,distribution volume,[1]; [8],2.88 to 4.85 L/kg
same,half-life,"[1]; other: i.v. and p.o. administration, i.v. and p.o. administration, read-out: half-life",< 2 h
same,AUC,"[1]; iv, i.v. 5 mg/kg",1160 ng·h/mL
same,k el,"[1]; iv, i.v. 5 mg/kg",0.000369 s⁻¹
same,clearance,"[1]; iv, i.v. 5 mg/kg",71.7 mL/min/kg
same,Vd,"[1]; iv, i.v. 5 mg/kg",4.85 L/kg
same,AUC,"[1]; iv, i.v. 10 mg/kg",2430 ng·h/mL
same,k el,"[1]; iv, i.v. 10 mg/kg",0.000722 s⁻¹
same,clearance,"[1]; iv, i.v. 10 mg/kg",68.5 mL/min/kg
same,Vd,"[1]; iv, i.v. 10 mg/kg",3.93 L/kg
same,AUC,"[1]; iv, i.v. 25 mg/kg",7460 ng·h/mL
same,k el,"[1]; iv, i.v. 25 mg/kg",0.000686 s⁻¹
same,clearance,"[1]; iv, i.v. 25 mg/kg",55.8 mL/min/kg
same,Vd,"[1]; iv, i.v. 25 mg/kg",2.88 L/kg
same,half-life,"[1]; iv, i.v. 5, 10 and 25 mg/kg, range over doses, read-out: T1/2β",1.5 to 1.99 h
same,Tmax,"[2]; ICR, mouse, plasma, po, every group of dose (30-210 mg/kg)",2 h
same,bioavailability,"[2]; ICR, mouse, plasma, po, p.o. administration, over doses 30-210 mg/kg, read-out: bioavailability (F)",~23%
same,Cmax,[2]; [9],634 ± 129 ng/mL
same,Tmax,[2]; [9],2 h
same,AUC,[2]; [9],1570 ng·h/mL
same,Cmax,[2]; [10],1360 ± 799 ng/mL
same,Tmax,[2]; [10],2 h
same,AUC,[2]; [10],2570 ng·h/mL
same,Cmax,[2]; [11],1680 ± 811 ng/mL
same,Tmax,[2]; [11],2 h
same,AUC,[2]; [11],3770 ng·h/mL
same,Cmax,[2]; [12],2460 ± 802 ng/mL
same,Tmax,[2]; [12],2 h
same,AUC,[2]; [12],5890 ng·h/mL
same,Cmax,[2]; [13],4890 ± 1190 ng/mL
same,Tmax,[2]; [13],2 h
same,AUC,[2]; [13],15200 ng·h/mL
same,MRTpo,[2]; p.o. 30 mg/kg,2.45 h
same,F,"[2]; p.o. 30 mg/kg, vs AUC of 10 mg/kg i.v.",0.2156
same,MRTpo,[2]; p.o. 50 mg/kg,2.49 h
same,F,"[2]; p.o. 50 mg/kg, vs AUC of 10 mg/kg i.v.",0.2110
same,MRTpo,[2]; p.o. 68 mg/kg,2.46 h
same,F,"[2]; p.o. 68 mg/kg, vs AUC of 10 mg/kg i.v.",0.2277
same,MRTpo,[2]; p.o. 100 mg/kg,2.46 h
same,F,"[2]; p.o. 100 mg/kg, vs AUC of 10 mg/kg i.v.",0.2419
same,MRTpo,[2]; p.o. 210 mg/kg,2.74 h
same,F,"[2]; p.o. 210 mg/kg, vs AUC of 10 mg/kg i.v.",0.2982
same,F,[2]; p.o. between 30 and 100 mg/kg,approximately 0.22
same,AUC,"[3]; ICR, mouse, plasma, po, 68 mg/kg, P. berghei-infected (0.61%) fasted mice",3270 ng·h/mL
same,Cmax,"[3]; ICR, mouse, plasma, po, 68 mg/kg, P. berghei-infected (0.61%) fasted mice, read-out: Cmax",1770 ± 1650 ng/mL
same,Cmax,"[3]; ICR, mouse, plasma, po, 68 mg/kg, normal-fasted mice (control), read-out: Cmax",1680 ng/mL
same,AUC,[3]; [14],2280 ng·h/mL
same,Tmax,[3]; [14],1.5 h
same,Cmax,"[3]; ICR, mouse, plasma, po, 68 mg/kg, normal-fed mice, read-out: Cmax",953 ng/mL
same,AUC in fed mice relative to fasted mice,[3],about 60%
same,Cmax in fed mice relative to normal-fasted mice,[3],57%
same,F,[3]; P. berghei-infected (0.61%) fasted mice,0.1978
same,MRTpo,[3]; normal-fed mice,3.01 h
same,F,[3]; normal-fed mice,0.1379
same,Cmax,"[3]; normal-fed mice, 68 mg/kg",950 ng/mL and 952.50 ± 332.49 ng/mL
same,minimal plasma concentration (Cmin),"[4]; 68 mg/kg p.o. every 8 h for 2 days, normal-fed mice, except 8 h after the first administration",greater than 10 ng/mL
same,accumulation on multiple oral dosing,"[4]; 68 mg/kg p.o. three times per day for 2 days, normal-fed mice",did not accumulate; also recorded: does not accumulate
same,X (hybrid parameter used for simulation),[4]; [15],8422 ng/mL/kg
same,Z (hybrid parameter used for simulation),[4]; [15],5.29 ng/mL/kg
same,ka (absorption rate constant),[4]; [15],0.845 h⁻¹
same,lag time,[4]; [15],0.330
same,α (hybrid parameter used for simulation),[4]; [15],1.09 ng/h/mL/kg
same,β (hybrid parameter used for simulation),[4]; [15],1.06 h⁻¹
same,solubility,Solubility,0.007 mg/mL
same,plasma concentration maintained for 72 h,[5],more than 10 ng/mL
same,EC50,"[6]; equivalent of 8.6 ng/mL, read-out: EC50",23 nM
same,EC50,[6],8.6 ng/mL
same,ED50,P. berghei; i.v.,22 mg/kg
same,ED50,P. berghei; p.o.,15 mg/kg
same,period without parasites after the last administration,rodent malaria parasites; infected mice,2 months
same,time after treatment at which parasites were not observed in the bloodstream,rodent malaria parasites; infected mice,36 h
same,time after which malaria parasites decreased,rodent malaria parasites; infected mice,16 h
same,cure of infected mice,rodent malaria parasites,completely cured without recrudescence
same,solubility in Cremophor EL,[7]; Cremophor EL,65 mg/mL
same,solubility in olive oil,[7]; olive oil,92 mg/mL
